What follows are molecules tested against IGF-1R (Homo sapiens (Human), UniProt P08069) (assay: Example B-1: IGF-1R Assay (PC3 cells, IGF1 stimulation, AlphaLISA)). Conditions: 200 ng/mL IGF1 stimulation, read-out: Biological Activity against IGF-1R IC50.
Assay type: cell-based
Summary of the method: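 Readout is AlphaLISA signal from lysed PC3 cells, expressed as % inhibition versus vehicle and EC80 controls and banded by IC50. Before lysis, the cells were starved of serum for 2 h, exposed to 3× serially diluted compound for 2 h, and stimulated for 30 min with 200 ng/mL IGF1 (final).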

Chain of IGF-1R (P08069 31-1367): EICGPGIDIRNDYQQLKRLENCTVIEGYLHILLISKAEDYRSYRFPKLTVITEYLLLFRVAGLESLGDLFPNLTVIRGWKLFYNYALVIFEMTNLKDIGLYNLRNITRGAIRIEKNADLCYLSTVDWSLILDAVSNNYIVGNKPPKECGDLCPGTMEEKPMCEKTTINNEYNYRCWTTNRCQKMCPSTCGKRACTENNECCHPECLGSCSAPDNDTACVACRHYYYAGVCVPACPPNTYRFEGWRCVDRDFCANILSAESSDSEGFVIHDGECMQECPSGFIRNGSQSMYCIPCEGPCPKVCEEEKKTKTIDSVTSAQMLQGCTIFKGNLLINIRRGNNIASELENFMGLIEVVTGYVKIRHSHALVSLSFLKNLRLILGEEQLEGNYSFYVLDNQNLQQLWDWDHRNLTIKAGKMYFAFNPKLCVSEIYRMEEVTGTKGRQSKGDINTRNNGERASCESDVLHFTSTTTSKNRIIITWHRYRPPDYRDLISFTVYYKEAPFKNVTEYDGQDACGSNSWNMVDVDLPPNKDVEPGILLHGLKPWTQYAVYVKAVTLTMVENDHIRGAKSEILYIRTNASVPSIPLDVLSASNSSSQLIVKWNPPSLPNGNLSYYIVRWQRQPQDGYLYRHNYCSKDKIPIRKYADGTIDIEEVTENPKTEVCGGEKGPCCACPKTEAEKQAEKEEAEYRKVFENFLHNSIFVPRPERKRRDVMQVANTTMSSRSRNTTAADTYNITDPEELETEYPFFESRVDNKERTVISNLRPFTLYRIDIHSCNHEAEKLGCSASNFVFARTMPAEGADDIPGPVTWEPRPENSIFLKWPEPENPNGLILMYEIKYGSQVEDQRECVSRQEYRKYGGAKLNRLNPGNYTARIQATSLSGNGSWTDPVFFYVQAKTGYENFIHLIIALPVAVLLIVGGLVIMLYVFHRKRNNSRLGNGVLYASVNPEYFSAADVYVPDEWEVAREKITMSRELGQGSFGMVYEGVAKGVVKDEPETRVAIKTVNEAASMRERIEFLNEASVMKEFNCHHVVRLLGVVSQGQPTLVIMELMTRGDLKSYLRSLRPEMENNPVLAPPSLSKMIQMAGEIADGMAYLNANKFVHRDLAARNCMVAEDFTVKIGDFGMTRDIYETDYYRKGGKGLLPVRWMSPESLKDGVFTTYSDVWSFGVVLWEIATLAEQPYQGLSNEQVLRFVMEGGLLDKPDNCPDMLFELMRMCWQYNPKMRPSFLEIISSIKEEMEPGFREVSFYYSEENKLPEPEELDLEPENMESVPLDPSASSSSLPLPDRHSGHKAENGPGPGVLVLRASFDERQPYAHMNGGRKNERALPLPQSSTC

Structure (SMILES) | IC50 [nM]
COc1cc(Nc2nccc(Nc3cnc4cc(F)cc(F)c4c3)n2)ccc1O[C@H]1C[C@@H](N(C)C)C1 [Compound 118, 4-(5,7-difluoro-3-quinolylamino)-2-{3-methoxy-4-[(1s,3s)-3-(dimethylamino)cyclobutoxy]phenylamino}pyrimidine] | ≤ 500
COc1cc(Nc2nccc(Nc3cc4ccc(F)c(F)c4[nH]c3=O)n2)ccc1O[C@H]1C[C@@H](N(C)C)C1 [Compound 117, 7,8-difluoro-3-(2-{3-methoxy-4-[(1s,3s)-3-(dimethylamino)cyclobutoxy]phenyl-amino}-4-pyrimidinylamino)-1,2-dihydro-2-quinolinone] | ≤ 500
COc1cc(Nc2nccc(Nc3cnc4ncc(F)cc4c3)n2)ccc1O[C@H]1C[C@@H](N(C)C)C1 [Compound 86, 4-(6-fluoro-1,8-diaza-3-naphthylamino)-2-{3-methoxy-4-[(1s,3s)-3-(dimethylamino)cyclobutoxy]phenylamino}pyrimidine] | ≤ 500
COc1cc(Nc2nccc(Nc3cnc4c(c3)CC3(CCC3)CC4)n2)ccc1O[C@H]1C[C@H](N(C)C)C1 [Compound 80, 4-(7′,8′-dihydro-5′H-spiro[cyclobutane-1,6′-quinolin]-3′-ylamino)-2-{3-methoxy-4-[(1r,3r)-3-(dimethylamino)cyclobutoxy]phenylamino}pyrimidine] | ≤ 500
c1cc(Nc2cnc3c(c2)CC2(CC3)OCCO2)nc(Nc2ccc(OCCCN3CCOCC3)cc2)n1 [Compound 68, 4-(7′,8′-dihydro-5′H-spiro[1,3-dioxolane-2,6′-quinolin]-3′-ylamino)-2-[p-(3-morpholinopropoxy)phenylamino] pyrimidine] | ≤ 500
COc1cc(Nc2nccc(Nc3cnc4c(c3)OCCO4)n2)ccc1O[C@H]1CC[C@@H](N(C)C)CC1 [Compound 273] | ≤ 500
COc1cc(Nc2nccc(Nc3cnc4c(c3)CCCC4C(C)(C)C)n2)ccc1OCCCN1CCCCC1 (stereo not shown) [Compound 74, 4-[8-(tert-butyl)-5,6,7,8-tetrahydro-3-quinolylamino]-2-[3-methoxy-4-(3-piperidinopropoxy)phenylamino] pyrimidine] | ≤ 500
COc1cc(Nc2nccc(Nc3ccc4c(c3)CCCN4C)n2)ccc1OCCCN1CCCCC1 [Compound 451, 2-[3-methoxy-4-(3-piperidinopropoxy)phenylamino]-4-(1-methyl-1,2,3,4-tetrahydro-6-quinolylamino) pyrimidine] | ≤ 500
COc1cc(Nc2nccc(Nc3ccc4c(c3)OCCO4)n2)ccc1OCCCN1CCCCC1 [Compound 376, 4-(2,3-dihydro-1,4-benzodioxin-6-ylamino)-2-[3-methoxy-4-(3-piperidinopropoxy)phenylamino]pyrimidine] | ≤ 500
COc1ccc2ccc(Nc3ccnc(Nc4ccc(OCCCN5CCCCC5)c(OC)c4)n3)cc2c1 [Compound 452, 4-(7-methoxy-2-naphthylamino)-2-[3-methoxy-4-(3-piperidinopropoxy)phenylamino] pyrimidine] | ≤ 500
COc1cc(Nc2nccc(Nc3cnc4cncc(F)c4c3)n2)ccc1O[C@H]1C[C@@H](N(C)C)C1 [Compound 274, 4-(5-fluoro-1,7-diaza-3-naphthylamino)-2-{3-methoxy-4-[(1s,3s)-3-(dimethylamino)cyclobutoxy]phenylamino}pyrimidine] | 2000 to 10000

Other lines, results leading:

IC50 [nM] | Structure (SMILES)
≤ 500 | COc1cc(Nc2nccc(Nc3cnc4c(Cl)cccc4c3)n2)ccc1OCCCN1CCOCC1 [Compound 413, 4-(8-chloro-3-quinolylamino)-2-[3-methoxy-4-(3-morpholinopropoxy)phenylamino]pyrimidine]
≤ 500 | COc1cc(Nc2nccc(Nc3cnc4cc(C5CC5)ccc4c3)n2)ccc1OCCCN1CCCCC1 [Compound 107, 4-(7-cyclopropyl-3-quinolylamino)-2-[3-methoxy-4-(3-piperidinopropoxy)phenylamino]pyrimidine]
≤ 500 | COc1cc(Nc2nccc(Nc3cnc4c(F)cccc4c3)n2)ccc1OCCCN1CCCCC1 [Compound 96, 4-(8-fluoro-3-quinolylamino)-2-[3-methoxy-4-(3-piperidinopropoxy)phenylamino]pyrimidine]
≤ 500 | COc1cc(Nc2nccc(Nc3cnc4c(c3)OCCO4)n2)ccc1OCCCN1CCOCC1 [Compound 389, 4-(2,3-dihydro-1,4-dioxa-5-aza-7-naphthylamino)-2-[3-methoxy-4-(3-morpholinopropoxy)phenylamino]pyrimidine]
> 10000 | COc1cc(Nc2nccc(Nc3cc4cccc(F)c4[nH]c3=O)n2)cnc1N1CCS(=N)(=O)CC1 [Compound 240, 4-{5-[4-(8-fluoro-2-oxo-1,2-dihydro-3-quinolylamino)-2-pyrimidinylamino]-3-methoxy-2-pyridyl}-1-imino-1λ^6,4-thiazinan-1-one]
> 10000 | COc1cc(Nc2nccc(Nc3cnc4cc(F)c(F)cc4c3)n2)cnc1N1CCNC(=O)C1 [Compound 471, 4-{5-[4-(6,7-difluoro-3-quinolylamino)-2-pyrimidinylamino]-3-methoxy-2-pyridyl}-2-piperazinone]
≤ 500 | COc1cc(Nc2nccc(Nc3cnc4c(c3)CSCC4)n2)ccc1OCCCN1CCCCC1 [Compound 377, 4-(7,8-dihydro-5H-6-thia-1-azanaphth-3-ylamino)-2-[3-methoxy-4-(3-piperidinopropoxy)phenylamino]pyrimidine]
≤ 500 | COc1cc(Nc2nccc(Nc3cnc4c(c3)OCCO4)n2)ccc1OCCCN1CCCCC1 [Compound 201, 4-(2,3-dihydro-1,4-dioxa-5-aza-7-naphthylamino)-2-[3-methoxy-4-(3-piperidinopropoxy)phenylamino]pyrimidine]
≤ 500 | COc1cc(Nc2nccc(Nc3cc4cccc(F)c4[nH]c3=O)n2)cnc1N1CCN(CC#N)CC1 [Compound 236, (4-{5-[4-(8-fluoro-2-oxo-1,2-dihydro-3-quinolylamino)-2-pyrimidinylamino]-3-methoxy-2-pyridyl}-1-piperazinyl)acetonitrile]
≤ 500 | COc1cc(Nc2nccc(Nc3cnc4cc(F)c(F)cc4c3)n2)cnc1N1CCN(C2COC2)CC1 [Compound 51, 4-(6,7-difluoro-3-quinolylamino)-2-{5-methoxy-6-[4-(3-oxetanyl)-1-piperazinyl]-3-pyridylamino}pyrimidine]
≤ 500 | COc1nc(N2CCN(C)CC2)ccc1Nc1nccc(Nc2cnc3cc(F)c(F)cc3c2)n1 [Compound 472, 4-(6,7-difluoro-3-quinolylamino)-2-[2-methoxy-6-(4-methyl-1-piperazinyl)-3-pyridylamino]pyrimidine]

Reference: patent publication US20250171431A1, “HETEROCYCLIC INHIBITORS OF IGF-1R FOR TREATMENT OF DISEASE” (HORIZON THERAPEUTICS IRELAND DAC, priority 2023, published 2025)
